Laboratory results: patent EP4700022A1, “CYP11A1 INHIBITORS AND USE THEREOF” (Xizang Haisco Pharmaceutical Co., Ltd., priority 2023, dated 2024)

Legend:
[1] = system: testosterone level in NCI-H295R cells; assay: cells; type: cell-based; conditions: Homo sapiens, 72 h; for IC50: read-out: IC50/nM; for inhibition at 0.1 µM: read-out: Testosterone level in H295R (Elisa) inh.% 100 nM; for inhibition at 1 µM: read-out: Testosterone level in H295R (Elisa) inh.% 1000 nM
Description: 1. The purpose of the experimental study was intended to detect the testosterone level in the NCI-H295R cells by adopting the Enzyme linked immunosorbent assay (ELISA), so as to evaluate the inhibitory effects of the compounds on the testosterone level in the NCI-H295R cells. The H295R cells were purchased from ATCC, the cell complete medium contained DMEM: F12+ 10% FBS +0.00625 mg/ml insulin +0.00625 mg/ml transferrin+6.25 ng/ml selenium +1.25 mg/ml BSA+0.00535 mg/ml linoleic acid, and the cells were cultured in a 37°C, 5% CO2 incubator. The cells in the exponential growth phase were collected, and cultured in a cytokine-free medium (phenol red 1640-free +1% PS+10% css FBS+1.25 mg/ml BSA +0.00625 mg/ml insulin + 0.00625 mg/ml transferrin+6.25 ng/ml selenium+0.00535 mg/ml linoleic acid) for 3 days. The cells in the exponential growth phase were collected on the third day. The cell suspension was adjusted with a cytokine-free medium to a corresponding concentration and plated at 60000 cells/well, with the volume being 90 µL/well. Subsequently, 10 µL of the compounds at different concentrations was added and the plate was incubated in a CO2 incubator for 3 days. After the incubation was completed, according to the operation instructions for testosterone Elisa kit (Beyotime, PT872), 50 µL of the cell culture supernatant was collected from each well and centrifuged at 500 g for 5 min at room temperature and then the resulting supernatant was collected. The samples were added to the corresponding wells at 25 µl/well, and then formulated horseradish peroxidase labeled testosterone was added at 75 µl/well. The mixture was fully mixed for 10 seconds. The reaction wells were sealed with a plate-sealing film (white) and the mixture was incubated at room temperature in the dark for 120 min. The plate was washed 3 times with a volume of 300 µl per well, and then placed onto thick absorbent paper and dried. Chromogenic reagent TMB solution was added at 100 µl/well. The reaction wells were sealed with a plate-sealing film (white) and the mixture was incubated at room temperature in the dark for 15-20 min. Subsequently, a termination solution was added at 50 µl/well, and after the mixture was fully mixed, the absorbance value OD450 was immediately measured. The absorbance readings were processed using Graphpad Prim 8.0 software and S-shaped concentration curves were plotted and the IC50 values were calculated using a four-parameter non-linear regression model. The results were processed according to formula (1), the inhibition rate of the compound at different concentrations was calculated, and the IC50 value of the compound with an inhibition rate of 50% was calculated using Graphpad Prim 8.0 software, wherein RLU compound was the readout of the treated group, and RLU control was the average value of the solvent control group. Inhibition rate% = 100-RLUcompound /RLUcontrol × 100 [formula] Table 1. Inhibitory activity on testosterone level in NCI-H295R cells

[2] = system: pregnenolone level in NCI-H295R cells; assay: cells; type: cell-based; conditions: Homo sapiens, 72 h; for IC50: read-out: Pregnenolone level in H295R (Elisa) IC50 nM
Description: 2. The purpose of the experimental study was intended to detect the pregnenolone level in the NCI-H295R cells by adopting the Enzyme linked immunosorbent assay (ELISA), so as to evaluate the inhibitory effects of the compounds on the pregnenolone level in the NCI-H295R cells.
The H295R cells were purchased from ATCC (CRL-2128), the cell complete medium contained DMEM: F12+ 10% FBS +0.00625 mg/ml insulin+0.00625 mg/mL transferrin+6.25 ng/mL selenium+1.25 mg/mL BSA+0.00535 mg/mL linoleic acid, and the cells were cultured in a 37°C, 5% CO2 incubator. The cells in the exponential growth phase were collected, and cultured in a cytokine-free medium (phenol red 1640-free +1% PS+10% css FBS+1.25 mg/mL BSA +0.00625 mg/mL insulin+0.00625 mg/mL transferrin+6.25 ng/mL selenium+0.00535 mg/mL linoleic acid) for 3 days. The cells in the exponential growth phase were collected on the third day. The cell suspension was adjusted with a cytokine-free medium to a corresponding concentration and plated at 60000 cells/well, with the volume being 90 µL/well. Subsequently, 10 µL of the compounds at different concentrations was added and the plate was incubated in a CO2 incubator for 3 days. After the incubation was completed, the cell culture supernatant was collected and centrifuged at 2°C-8°C at 800×g for 10 min. The resulting supernatant was collected. Determination was carried out according to the operation instructions for pregnenolone Elisa kit (Antibodies-A73791), and the OD450 signal was read.
2.1 Standard curve plotting. The standard concentration was taken as the abscissa and the OD450 value as the ordinate, the coordinate points of various standards were connected with a smooth line and a curve was fitted according to the four parameter logistic (4-PL) method.
2.2 Sample quantification: The corresponding concentration (CONC) of testosterone/pregnenolone in the sample was calculated using the absorbance value of the sample and the standard curve. According to formula (2), the inhibition rate of the compound at various concentrations was calculated, and S-shaped concentration curves were plotted and the IC50 values (i.e., concentration of the compound at which the inhibition rate was 50%) were calculated using a three parameter non-linear regression model in Graphpad Prim 8.0 software. CONC cpd was the concentration of the treated group, and CONC ctrl was the average concentration value of the solvent control group. Inhibition rate% = 100%-CONCepd /CONCctrl × 100% [formula]

[3] = Pharmacokinetic test in mice; type: in vivo; conditions: mouse, male ICR mice, plasma; for Vd: read-out: Vdss
Description: 4.1. Experimental animals: Male ICR mice, 20-25 g, 6 mice/compound, purchased from Chengdu Dossy Experimental Animals Co., Ltd.
4.2 Experimental design: on the day of the experiment, the ICR mice were randomly grouped according to their body weights. […] Table 5. Administration information
vehicle for intravenous administration: 5% DMA+5% HS-15+90% NS; vehicle for intragastric administration: 0.5% MC
Before and after administration, 0.06 mL of blood was taken from the orbit under isoflurane anesthesia and placed in an EDTAK2 centrifuge tube. The tube was centrifuged at 5000 rpm at 4°C for 10 min, and plasma was collected. […] Before analysis and detection, all samples were stored at -80°C, and the samples were quantitatively analyzed by LC-MS/MS. Table 6. Pharmacokinetic parameters of test compounds in plasma of mice

[4] = Pharmacokinetic test in rats; type: in vivo; conditions: rat, male SD rats, plasma; for Vd: read-out: Vdss
Description: 3.1 Experimental animals: Male SD rats (about 220 g, 6-8 weeks old, 6 rats/compound), purchased from Chengdu Dossy Experimental Animals Co., Ltd.
3.2 Experimental design: On the day of the experiment, the SD rats were randomly grouped by body weight. […] Table 3. Administration information
Before and after the administration, 0.1 ml of blood was taken from the orbit of the animals under isoflurane anesthesia and placed in an EDTAK2 centrifuge tube. The blood was centrifuged at 5000 rpm and 4°C for 10 min to collect plasma. […] Before analysis and detection, all samples were stored at -80°C. Table 4. Pharmacokinetic parameters of test compounds in plasma of rats

[5] = Pharmacokinetic test in beagle dogs; type: in vivo; conditions: dog, male beagle dogs, plasma
Description: Experimental animals: male beagle dogs, about 8-11 kg, 6 beagle dogs/compound, purchased from Beijing Marshall Biotechnology Co., Ltd.
Experimental method: on the day of the experiment, the beagle dogs were randomly grouped according to their body weights. The animals were fasted with water available for 12-14 h one day before the administration, and were fed 4 h after the administration. Administration was performed as per Table 7.
Test compounds: example compounds and control compounds. Table 7. Administration information
Before and after the administration, 1 ml of blood was taken from the jugular veins or limb veins, and placed in an EDTAK2 centrifuge tube. Centrifugation was performed at 5000 rpm at 4°C for 10 min, and plasma was collected. The blood collection time points for both the intravenous administration group and the intragastric administration group were: 0, 5 min, 15 min, 30 min, 1 h, 2 h, 4 h, 6 h, 8 h, 10 h, 12 h, 24 h, 48 h, and 72 h. Before analysis and detection, all samples were stored at -80°C. The samples were analyzed quantitatively by LC-MS/MS. Table 8. Pharmacokinetic parameters of test compounds in plasma of beagle dogs

[6] = po, intragastric administration (10 mg/kg)
[7] = intravenous administration (2.5 mg/kg)
[8] = po, intragastric administration (3 mg/kg)
[9] = intravenous administration (1 mg/kg)

Row | Structure (SMILES) | IC50 [1] | inhibition at 0.1 µM [1] | inhibition at 1 µM [1] | IC50 [2] | AUC(0-t) [3, 6] | half-life [3, 6] | AUC(0-t) [3, 7] | clearance [3, 7] | half-life [3, 7] | Vd [3, 7] | AUC(0-t) [4, 6] | half-life [4, 6] | AUC(0-t) [4, 7] | clearance [4, 7] | half-life [4, 7] | Vd [4, 7] | further results
1 | [2H]C([2H])([2H])n1cc(C(=O)N[C@H]2CC[C@H](CCOc3cc(CN4Cc5ccc(C(F)(F)F)cc5C4)ccn3)CC2)cn1 [Compound 63] | 92 nM | 64.4% | 76.4% | 272 nM | 20800 ng·h/mL | 397 min | 5530 ng·h/mL | 7.37 mL/min/kg | 282 min | 2.36 L/kg | – | – | – | – | – | – | –
2 | [2H]C([2H])([2H])C(=O)N[C@H]1CC[C@H](CCOc2cc(CN3Cc4ccc(C(F)(F)F)cc4C3)ccn2)CC1 [Compound 62] | 151 nM | – | – | 142 nM | – | – | – | – | – | – | 41500 ng·h/mL | 248 min | 10800 ng·h/mL | 3.97 mL/min/kg | 229 min | 1.11 L/kg | –
3 | O=C(N[C@H]1CC[C@H](CCOc2cc(CN3Cc4ccc(C(F)(F)F)cc4C3)ccn2)CC1)[C@@H]1CC1(F)F [Compound 71] | – | 74.9% | 86.9% | – | – | – | – | – | – | – | – | – | – | – | – | – | inhibition at 0.1 µM ([2]; read-out: Pregnenolone level in H295R (Elisa) inh.% 100 nM): 43.9%; inhibition at 1 µM ([2]; read-out: Pregnenolone level in H295R (Elisa) inh.% 1000 nM): 57.5%
4 | O=C(N[C@H]1CC[C@H](CCOc2cc(CN3Cc4ccc(C(F)(F)F)cc4C3)ccn2)CC1)C1CC1 [Compound 65] | 168 nM | 71% | 75% | 319 nM | – | – | – | – | – | – | 7550 ng·h/mL | 395 min | 2150 ng·h/mL | 17.4 mL/min/kg | 495 min | 8.8 L/kg | –
5 | [2H]C([2H])([2H])C(=O)N[C@H]1CC[C@H](c2cc3oc(CN4Cc5ccc(C(F)(F)F)cc5C4)cc(=O)c3o2)CC1 [Compound 58] | 57 nM | – | – | 160 nM | 9460 ng·h/mL | 125 min | 2960 ng·h/mL | 14.2 mL/min/kg | 166 min | 1.34 L/kg | – | – | – | – | – | – | AUC(0-t) [5, 8]: 24800 ng·h/mL; half-life [5, 8]: 407 min; AUC(0-t) [5, 9]: 14000 ng·h/mL; clearance [5, 9]: 1.24 mL/min/kg; half-life [5, 9]: 612 min; Vd ([5]; intravenous administration (1 mg/kg), read-out: Vdss): 0.87 L/kg
